Measurements from US7615361B2, “Toxicity screening methods” (Ceetox, Inc., priority 2006, dated 2009).

Tests used:
H4IIE cells = assay: Cell number (propidium iodide); type: cell-based, rat; conditions: rat, 24 h
In short: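 Rat hepatoma H4IIE cells exposed to compound in complete medium, then lysed with Triton X-100 containing propidium iodide; fluorescence read at 540/610 nm. Blank-subtracted RFU expressed as percent of untreated control cells, means of n=3-7.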

ANP = assay: bDNA analysis of mRNA in rat cardiomyocytes; type: cell-based; conditions: rat cardiomyocytes, 1, 3, 6 and 24 hours
Description: (§1) Hypertrophy of the heart ventricular myocytes is regulated by a complex series of intracellular signaling processes involving angiotensin receptors and a series of down stream gene expression changes (Li et al. 2006). Endothelin-1 (ET-1) induces hypertrophy of cardiomyocytes in vivo and in vitro. The mechanism of ET-1-induced hypertrophy consists in the activation of phospholipase C, protein kinase C, extra cellular signal regulated kinase (ERK) and upregulation of cfos and cjun.
(§2) Expression of ANP and BNP mRNA levels was determined by bDNA analysis of mRNA. ET-1 at 0.1 μM was included as a positive control.
(§3) […] Plates were mixed using a DPC 5 Micromix plate shaker at 37° C. for 15-30 minutes to ensure complete lysis of cells. Cell lysis was confirmed using a Nikon inverted microscope. Plates were stored at −80° C. until further analysis.
(§4) bDNA Analysis (Day 1): All solutions were prepared fresh on the day of analysis. Quantigene® bDNA kit components were brought to room temperature prior to use. Chemicals not supplied by Genospectra were obtained from Sigma-Aldrich.
(§5) On the day of analysis, Target Probe Sets were prepared for probe gene sets by adding 25 μL of each probe set component (CE, LE, BL) to 425 μL stock lysis solution using the following probe set concentrations: CE (50 fmol/μL), LE (200 fmol/μL), BL (100 fmol/μL).
(§6) Cell lysis plates were removed from freezer storage and thawed. […] Next, 10 μL of the appropriate Target Probe Set (PS2) was added to each appropriate well of the Capture Plate. Plates were tightly sealed using a plate sealer and incubated at 53° C. for 16-20 hr (overnight).
(§7) bDNA Analysis (Day 2): Wash buffer was prepared in ultra-pure water using 0.1×Saline-Sodium Citrate (SSC) and 0.03% Lithium Lauryl Sulfate (LLS). Amplifier working solution was prepared by adding 10 μL Amplifier to 10 mL Amplifier Diluent per plate.
(§8) Plates were removed from incubator and washed three times with 300 μL wash buffer. Wash buffer was completely removed from plates by aspiration and 100 μL Amplifier working solution was added to each well. Plates were sealed and incubated at 46° C. for 1 hr.
(§9) Label Probe working solution was prepared by adding 10 μL Label Probe to 10 mL Label Probe Diluent per plate. […] Plates were sealed and incubated at 46° C. for 1 hr.

BNP = assay: bDNA analysis of mRNA in rat cardiomyocytes; type: cell-based; conditions: rat cardiomyocytes, 1, 3, 6 and 24 hours
Description: as §1, §2, §3, §4, §5, §6, §7, §8, §9

[1] = system: reactive oxygen species (ROS); assay: DCFDA fluorescence; type: cell-based, rat; conditions: 5 μM
Protocol: The production of reactive oxygen species (ROS) can be measured using 2′-7′dichloro-dihydrofluorescein diacetate (DCFDA).
Dihydro-2′,7′-dichloroflorescin-diacetate (DCFDA) for Monitoring Peroxide Formation: DCFDA (Sigma C-6827) was dissolved in DMSO at a concentration of 205 mM. The stock was diluted to 50 μM in phosphate buffered saline. Cells were preloaded with DCFDA for 1 hour prior to dosing with test compounds. Positive control wells were dosed with freshly prepared 300 μM t-Butyl hydroperoxide (tBHP). After compound exposure, the plates were washed with phosphate buffered saline and read at 485/530 in a Packard Fusion plate reader.
Dihydro-2′,7′-dichloroflorescin-diacetate (DCFDA) for Monitoring Peroxide Formation: Plates were read at 485/530 in a Packard Fusion plate reader or equivalent.

[2] = system: H4IIE tumor cells, NRK cells, rat primary hepatocytes; assay: Anti-tumor screen in three rat cell types; type: cell-based
Description: In the Anti-tumor screen of the present invention, at least three different cell types are utilized: (1) tumor derived cells, (2) proliferating cells from normal tissue, and (3) non-proliferating cells from normal tissue. The evaluation of anti-tumor agents in multiple cell types provides information on mechanism-based toxicity versus efficacy.
The anti-tumor agent can be evaluated in a toxicity screen of key biochemical functions (as described in detail herein above), with emphasis placed on cell proliferation assays as well as biochemical function and cell viability. Comparisons can then be made to quantitative markers in the concentration response curves constructed with the toxicity data.
It is hypothesized to act through mitochondrial toxicity as well as apoptosis.

C32 cells = assay: Caspase 3 activity (apoptosis); type: cell-based, human; conditions: C32, 24 HR
Protocol: (§10) Caspase 3 Procedure: Caspase 3 activity was determined using a caspase substrate (DEVD, Asp-Glu-Val-Asp) labeled with a fluorescent molecule, 7-Amino4-methylcoumarin (AMC). Caspase 3 cleaves the tetrapeptide between D and AMC, thus releasing the fluorogenic […] AMC. Following the test article exposure to cells in 96-well plates, medium was aspirated from plates and PBS added to each well. Plates were stored at −80° C. to lyse cells and store samples until further analysis. On the day of analysis, plates were removed from freezer and thawed. Caspase buffer with fluorescent substrate was added to each well and incubated at room temperature for 1 hr. AMC release was measured in a spectrofluorometer at an excitation wavelength of 360 nm and an emission wavelength of 460 nm. Values are expressed as relative fluorescent units (RFU).
(§11) Caspase Activity: After sample plates were completely thawed, the caspase substrate buffer mix was added to each plate. Plates were incubated at room temperature for 1hr, shielded from light. Plates were read using a in a spectrofluorometer at an excitation wavelength of 360 nm and an emission wavelength of 460 nm. Values were expressed as relative fluorescent units (RFU).
(§12) The key to the maximal response data can be found below Table 2.
(§13) Dosing solutions were prepared in complete culture medium.

HUVEC = assay: Caspase 3 activity (apoptosis); type: cell-based, human; conditions: 24 HR
Protocol: as §10, §11, §12, §13

NHEM cells = assay: Caspase 3 activity (apoptosis); type: cell-based, human; conditions: 24 HR
Protocol: as §10, §11, §12, §13

SK-MEL28 cells = assay: Caspase 3 activity (apoptosis); type: cell-based, human
Protocol: as §10, §11, §12, §13

COc1cccc2c1C(=O)c1c(O)c3c(c(O)c1C2=O)C[C@@](O)(C(=O)CO)C[C@@H]3O[C@H]1C[C@H](N)[C@H](O)[C@H](C)O1 [ADRIAMYCIN, Adriamycin]
CC50 (H4IIE cells): 9 µM
effect on ANP expression (ANP): no effect
effect on BNP expression (BNP): no effect
increase in DCFDA (ROS related) fluorescence [1]: 4 fold
sensitivity of cell types in the anti-tumor screen [2]: toxic to all of the cells tested

CC[C@@]1(O)C(=O)OCc2c1cc1n(c2=O)Cc2cc3ccccc3nc2-1 [CAMPTOTHECIN, Camptothecin]
Caspase 3 Activity (Index/Dose): Index (C32 cells): 4 (600-800 = 4)
Caspase 3 Activity (Index/Dose): Dose (C32 cells; controls (μM section)): 300
Caspase 3 Activity (Index/Dose): Index (HUVEC): 1 (0-200 = 1)
Caspase 3 Activity (Index/Dose): Dose (HUVEC; controls (μM section)): 300
Caspase 3 Activity (Index/Dose): Index (NHEM cells): 3 (400-600 = 3)
Caspase 3 Activity (Index/Dose): Dose (NHEM cells; controls (μM section)): 300
Caspase 3 Activity (Index/Dose): Index (SK-MEL28 cells; SK-MEL28, 24 HR): 3 (400-600 = 3)
Caspase 3 Activity (Index/Dose): Index (SK-MEL28 cells; SK-MEL28, 24 HR, COMP A (LOW) / controls #2): 3 (400-600 = 3)
Caspase 3 Activity (Index/Dose): Dose (SK-MEL28 cells; SK-MEL28, 24 HR, run #2, controls (μM section)): 100
Caspase 3 Activity (Index/Dose): Dose (SK-MEL28 cells; SK-MEL28, 24 HR, controls (μM section of table)): 300
Caspase 3 Activity (Index/Dose): Index (SK-MEL28 cells; SK-MEL28, 72 HR, COMP A (LOW) / controls #2): 3 (400-600 = 3)
Caspase 3 Activity (Index/Dose): Dose (SK-MEL28 cells; SK-MEL28, 72 HR, run #2, controls (μM section)): 100
